Reference: patent publication US6730655B2, “Biphenyl diquaternary ammonium compounds” (Ciba Specialty Chemicals Corporation, priority 2000, dated 2004)

Experiments:
[1] = tested on: Aspergillus niger ATCC 6275; settings: Sabouraud agar, 3 days at 28° C.
Protocol: (§1) Determination of the Minimum Inhibitory Concentration (MIC Value)
(§2) The procedure to determine the antimicrobial activity of the compounds of the invention is as follows:
Sabouraud agar for the pre-culture of Aspergillus niger.
(§3) Sabouraud agar for determining the MIC value of Aspergillus niger and Candida albicans.
(§4) deionised water or EtOH as solvent.
(§5) The test substances are predissolved in deionised water or in ethanol and incorporated in a dilution series in agar warmed to 47-50° C.
The mould is cultured on Sabouraud agar and rinsed off with 0.85% sodium chloride solution containing 0.01% Triton X-100.
(§6) All the test organisms are adjusted to an organism count of from 10^6 to 10^7 CFU/ml using 0.85% sodium chloride solution.
(§7) The organism suspensions are each pipetted in an amount of 10 μl onto an agar plate containing the test substance. The test batches are then incubated for 2 days at 37° C. (bacteria and yeast) or for 3 days at 28° C. (Aspergillus niger). In order to check the influence of the solvent used (deionised water, ethanol), organism suspensions are in addition incubated on agar plates without test substances (control plates).
(§8) After incubation, the growth of the microorganisms on the test substances is compared with the control plates. The minimum inhibitory concentration (MIC value) is the concentration of substance at which (compared with the control plates) a clear inhibition of growth of the test organisms is to be ascertained.
(§9) The microbiological data ascertained are compiled in Table 1.

[2] = tested on: Candida albicans ATCC 10231; settings: Sabouraud agar, 2 days at 37° C.
Source text: as §1, §2
(§10) Casein/soybean flour peptone bouillon for the preparation of pre-cultures of the test bacteria and yeast.
as §3, §4, §5
(§11) Bacteria and yeast are incubated for from 18 to 24 hours at 37° C. in casein/soybean flour peptone bouillon.
as §6, §7, §8, §9

[3] = tested on: Staphylococcus aureus ATCC 6538; settings: test substance 1600 ppm, contact time 5 minutes at 20° C., 0.3% bovine serum albumin
Protocol: Suspension Test to Determine the Bactericidal Activity in Accordance with the European Standard According to EN 1276
Staphylococcus aureus ATCC 6538.
5 minutes at 20° C. (+/−1° C.).
Inactivation Medium After the Contact Time
D/E neutralisation solution (Dey-Engley, consisting of 0.1% sodium thioglycolate,
0.5% Tween 80, and also 0.7% lecithin and sterile, deionised water ad 100%).
Casein/soybean flour peptone agar with lecithin, L-histidine, and Tween 80 as inactivating agent
(Merckoplate No. 18360, Merck-Darmstadt).
Incubation of the Test Plates
Precaration of the Pre-Culture
The bacteria cultures are cultured on casein/soybean flour peptone slant agar and incubated for from 18 to 24 hours at 37° C. They are then rinsed off with water and adjusted to a bacteria count of 1.5×10^8-5×10^8 CFU/ml.
All of the reagents required for the test are first equilibrated at 20° C. (+/−1° C.). 1.0 ml of 0.3% bovine serum albumin (in deionised water) is introduced into a test tube. After the addition of 1.0 ml of bacteria suspension (1.5×10^8-5×10^8 CFU/ml), the solution is mixed and maintained at 20° C. for 2 minutes (+/−10 seconds). 8.0 ml of the test substance (2000 ppm solution in water) are then added. The mixture is incubated for 5 minutes at 20° C. (+/−1° C.). […] After the period of incubation, the number of colonies is counted and quoted as a logarithmic reduction (log 10) of the bacteria.

[4] = tested on: Staphylococcus hominis DSM 20328; settings: Mueller Hinton agar, 2 days at 37° C.
Source text: as §1, §2, §10
(§12) Mueller Hinton agar for determining the MIC value of bacteria.
as §4, §5, §11, §6, §7, §8, §9

[5] = tested on: Escherichia coli NCTC 8196; settings: Mueller Hinton agar, 2 days at 37° C.
Source text: as §1, §2, §10, §12, §4, §5, §11, §6, §7, §8, §9

| Compound | MIC values A. niger [1] [ppm] | MIC values C. albicans [2] [ppm] | Logarithmic reduction Staphylococcus aureus [3] [log 10] | MIC values S. hominis [4] [ppm] | MIC values E. coli [5] [ppm] |
| --- | --- | --- | --- | --- | --- |
| CCCCCCCC[N+](C)(C)Cc1ccc(-c2ccc(C[N+](C)(C)CCCCCCCC)cc2)cc1.[Cl-].[Cl-] [Compound of formula (3), 4,4′-Bis(N,N-dimethyl-N-octyl-ammoniummethyl)biphenyl dichloride] | 2.5 | 10 | 5.6 | 5 | 1 |
| CCCCCC[N+](C)(C)Cc1ccc(-c2ccc(C[N+](C)(C)CCCCCC)cc2)cc1.[Cl-].[Cl-] [Compound of formula (2), 4,4′-Bis(N,N-dimethyl-N-hexyl-ammoniummethyl)biphenyl dichloride] | 2.5 | 50 | 5.6 | 50 | 5 |
| CCCCCCCCCCCC[N+](C)(C)Cc1ccc(-c2ccc(C[N+](C)(C)CCCCCCCCCCCC)cc2)cc1.[Cl-].[Cl-] [Compound of formula (4), 4,4′-Bis(N,N-dimethyl-N-dodecyl-ammoniummethyl)biphenyl dichloride] | 100 | 25 |  | 10 | 250 |
| CCCCCCCCCCCCCCCC[N+](C)(C)Cc1ccc(-c2ccc(C[N+](C)(C)CCCCCCCCCCCCCCCC)cc2)cc1.[Cl-].[Cl-] [Compound of formula (5), 4,4′-Bis(N,N-dimethyl-N-hexadecyl-ammoniummethyl)biphenyl dichloride] | 1000 | 500 |  | 100 | 1000 |
